Test results published in the NIST ThermoML archive (doi:10.1016/j.fluid.2004.11.019).

Test: xn = mol fraction of the nth substance listed
Settings: Liquid

CCO [ethanol] + O
Settings | mass density [kg/m3]
298.15 K, 30000 kPa, x1 = 0.35 | 907.2
298.15 K, 30000 kPa, x1 = 0.4034 | 895.5
298.15 K, 30000 kPa, x1 = 0.4501 | 885.7
298.15 K, 30000 kPa, x1 = 0.498 | 876.8
298.15 K, 30000 kPa, x1 = 0.5501 | 867.6
298.15 K, 30000 kPa, x1 = 0.5998 | 859.5
298.15 K, 30000 kPa, x1 = 0.6489 | 852
298.15 K, 30000 kPa, x1 = 0.6967 | 845.1
298.15 K, 30000 kPa, x1 = 0.7475 | 838.5
298.15 K, 30000 kPa, x1 = 0.7996 | 831.9
298.15 K, 30000 kPa, x1 = 0.8484 | 825.9
298.15 K, 30000 kPa, x1 = 0.8993 | 820
298.15 K, 30000 kPa, x1 = 0.9503 | 814.5
298.15 K, 30000 kPa, x1 = 1 | 808.9
298.15 K, 40000 kPa, x1 = 0.003 | 1012.7
298.15 K, 40000 kPa, x1 = 0.0042 | 1011.5
298.15 K, 40000 kPa, x1 = 0.0082 | 1010
298.15 K, 40000 kPa, x1 = 0.0119 | 1008.3
298.15 K, 40000 kPa, x1 = 0.0158 | 1006.4
298.15 K, 40000 kPa, x1 = 0.0184 | 1005
298.15 K, 40000 kPa, x1 = 0.0219 | 1004.1
298.15 K, 40000 kPa, x1 = 0.0255 | 1002.4
298.15 K, 40000 kPa, x1 = 0.0279 | 1000.8
298.15 K, 40000 kPa, x1 = 0.0315 | 1000
298.15 K, 40000 kPa, x1 = 0.0366 | 997.6
298.15 K, 40000 kPa, x1 = 0.0392 | 996.4
298.15 K, 40000 kPa, x1 = 0.0439 | 995.1
298.15 K, 40000 kPa, x1 = 0.0483 | 993.3
298.15 K, 40000 kPa, x1 = 0.0516 | 992.7
298.15 K, 40000 kPa, x1 = 0.0559 | 991.5
298.15 K, 40000 kPa, x1 = 0.06 | 990.1
298.15 K, 40000 kPa, x1 = 0.0652 | 988.4
298.15 K, 40000 kPa, x1 = 0.0679 | 987.6
298.15 K, 40000 kPa, x1 = 0.0722 | 986.3
298.15 K, 40000 kPa, x1 = 0.0801 | 983.7
298.15 K, 40000 kPa, x1 = 0.084 | 983.2
298.15 K, 40000 kPa, x1 = 0.0879 | 981.9
298.15 K, 40000 kPa, x1 = 0.0926 | 980.6
298.15 K, 40000 kPa, x1 = 0.0958 | 979.8
298.15 K, 40000 kPa, x1 = 0.1006 | 978.5
298.15 K, 40000 kPa, x1 = 0.1111 | 975.4
298.15 K, 40000 kPa, x1 = 0.1225 | 972.2
298.15 K, 40000 kPa, x1 = 0.1296 | 970.4
298.15 K, 40000 kPa, x1 = 0.1402 | 967.3
298.15 K, 40000 kPa, x1 = 0.151 | 964.3
298.15 K, 40000 kPa, x1 = 0.1601 | 961.7
298.15 K, 40000 kPa, x1 = 0.1703 | 958.9
298.15 K, 40000 kPa, x1 = 0.18 | 956.2
298.15 K, 40000 kPa, x1 = 0.1903 | 953.3
298.15 K, 40000 kPa, x1 = 0.1996 | 950.5
298.15 K, 40000 kPa, x1 = 0.2269 | 942.9
298.15 K, 40000 kPa, x1 = 0.2502 | 936.7
298.15 K, 40000 kPa, x1 = 0.2745 | 930.3
298.15 K, 40000 kPa, x1 = 0.3009 | 923.7
298.15 K, 40000 kPa, x1 = 0.35 | 911.9
298.15 K, 40000 kPa, x1 = 0.4034 | 900.4
298.15 K, 40000 kPa, x1 = 0.4501 | 890.8
298.15 K, 40000 kPa, x1 = 0.498 | 882
298.15 K, 40000 kPa, x1 = 0.5501 | 873
298.15 K, 40000 kPa, x1 = 0.5998 | 865.1
298.15 K, 40000 kPa, x1 = 0.6489 | 857.7
298.15 K, 40000 kPa, x1 = 0.6967 | 851
298.15 K, 40000 kPa, x1 = 0.7475 | 844.5
298.15 K, 40000 kPa, x1 = 0.7996 | 838.1
298.15 K, 40000 kPa, x1 = 0.8484 | 832.3
298.15 K, 40000 kPa, x1 = 0.8993 | 826.5
298.15 K, 40000 kPa, x1 = 0.9503 | 821
298.15 K, 40000 kPa, x1 = 1 | 815.7
323.15 K, 100 kPa, x1 = 0.003 | 986.5
323.15 K, 100 kPa, x1 = 0.0042 | 985.4
323.15 K, 100 kPa, x1 = 0.0082 | 984
323.15 K, 100 kPa, x1 = 0.0119 | 982.7
323.15 K, 100 kPa, x1 = 0.0158 | 980.5
323.15 K, 100 kPa, x1 = 0.0184 | 979.2
323.15 K, 100 kPa, x1 = 0.0219 | 978
323.15 K, 100 kPa, x1 = 0.0255 | 976.5
323.15 K, 100 kPa, x1 = 0.0279 | 974.8
323.15 K, 100 kPa, x1 = 0.0315 | 973.9
323.15 K, 100 kPa, x1 = 0.0366 | 971.4
323.15 K, 100 kPa, x1 = 0.0392 | 970.2
323.15 K, 100 kPa, x1 = 0.0439 | 968.6
323.15 K, 100 kPa, x1 = 0.0483 | 966.6
323.15 K, 100 kPa, x1 = 0.0516 | 965.9
323.15 K, 100 kPa, x1 = 0.0559 | 964.5
323.15 K, 100 kPa, x1 = 0.06 | 962.9
323.15 K, 100 kPa, x1 = 0.0652 | 960.9
323.15 K, 100 kPa, x1 = 0.0679 | 960.2
323.15 K, 100 kPa, x1 = 0.0722 | 958.3
323.15 K, 100 kPa, x1 = 0.0801 | 955.1
323.15 K, 100 kPa, x1 = 0.084 | 954.7
323.15 K, 100 kPa, x1 = 0.0879 | 952.9
323.15 K, 100 kPa, x1 = 0.0926 | 951.4
323.15 K, 100 kPa, x1 = 0.0958 | 950.1
323.15 K, 100 kPa, x1 = 0.1006 | 948.5
323.15 K, 100 kPa, x1 = 0.1111 | 944.7
323.15 K, 100 kPa, x1 = 0.1225 | 940.6
323.15 K, 100 kPa, x1 = 0.1296 | 938.2
323.15 K, 100 kPa, x1 = 0.1402 | 934.5
323.15 K, 100 kPa, x1 = 0.151 | 930.7
323.15 K, 100 kPa, x1 = 0.1601 | 927.5
323.15 K, 100 kPa, x1 = 0.1703 | 924
